In one data set the target is T1, SARS-CoV-2 PLpro (Severe acute respiratory syndrome coronavirus 2, UniProt P0DTD1).
T1 construct: containing 60 nM papain-like protease
The data set can be described thus: biochemical. The conditions noted are these: 60 nM papain-like protease, 50 μM Z-RLRGG-AMC, pH 7.5, 37° C.; read-out: SARS-CoV-2 PLpro IC50.

Data set [1] has as its system human Hep G2 cells (ATCC HB-8065). The experiment in a line: Cytotoxicity in Hep G2 cells (CellTiter-Glo). In kind it is cell-based. The note with it: Hep G2 cells, 100 μM test article, 24-hour exposure.

Where a name gives a salt, the structure may show the parent alone. Some results are limits rather than exact numbers.

Consider 34 molecules from patent US20240383852A1, “ANTI-VIRAL COMPOUNDS” (INFEX Therapeutics Limited, priority 2021, published 2024).

On to `COc1ccc([C@@H](C)NC(=O)c2cc(N3CCN(C)CC3)ccc2C)cc1-c1cccc(C(C)(C)O)c1` [Example 204, N-[(1R)-1-[3-[3-(1-Hydroxy-1-methyl-ethyl)phenyl]-4-methoxy-phenyl]ethyl]-2-methyl-5-(4-methylpiperazin-1-yl)benzamide], for which the IC50 at SARS-CoV-2 PLpro was < 2 µM. Moreover, the “% Cell Viability” value in data set [1] worked out at 81.4%.

Regarding `C[C@@H](NC(=O)c1cc(C2=CCNC2)ccc1Cl)c1cccc2ccccc12` [Example 146, 2-Chloro-5-(2,5-dihydro-1H-pyrrol-3-yl)-N-[(1R)-1-(1-naphthyl)ethyl]benzamide Hydrochloride Salt], the IC50 on SARS-CoV-2 PLpro was < 2 µM. The “% Cell Viability” value in data set [1] stood at 0.2%.

As for `COc1ccc([C@@H](C)NC(=O)c2cc(N3CCC4(CC3)CNC4)ccc2C)cc1-c1cnn(C)c1` [Example 259, 5-(2,7-Diazaspiro[3.5]nonan-7-yl)-N-[(1R)-1-[4-methoxy-3-(1-methylpyrazol-4-yl)phenyl]ethyl]-2-methyl-benzamide], the IC50 at SARS-CoV-2 PLpro is < 2 µM. For the same molecule, the “% Cell Viability” value in data set [1] was 111.1%.

For the molecule `COc1cc(-c2cnn(C)c2)cc([C@@H](C)NC(=O)c2cc(C3CCN(C)CC3)ccc2C)c1` [Example 302, N-[(1R)-1-[3-Methoxy-5-(1-methylpyrazol-4-yl)phenyl]ethyl]-2-methyl-5-(1-methyl-4-piperidyl)benzamide], the IC50 on SARS-CoV-2 PLpro was < 2 µM. In data set [1], the “% Cell Viability” value was found to be 67.1%.

On to `COc1cc(-c2cn(C)nc2C)cc([C@@H](C)NC(=O)c2cc(N3CCN(CC4CC4)CC3)ccc2C)c1` [Example 255, 5-[4-(Cyclopropylmethyl)piperazin-1-yl]-N-[(1R)-1-[3-(1,3-dimethylpyrazol-4-yl)-5-methoxy-phenyl]ethyl]-2-methyl-benzamide hydrochloride salt], for which the IC50 on SARS-CoV-2 PLpro is < 2 µM. Besides, the “% Cell Viability” value in data set [1] is on record as 70.3%.

In the case of `Cc1ccc(N2CCN(C)CC2)cc1C(=O)N[C@H](C)c1cccc(C(O)CO)c1` (stereo partly drawn) [Example 69, N-[(1R)-1-[3-(1,2-Dihydroxyethyl)phenyl]ethyl]-2-methyl-5-(4-methylpiperazin-1-yl)benzamide], the IC50 on SARS-CoV-2 PLpro was < 10 µM. For the same molecule, the “% Cell Viability” value in data set [1] is on record as 107.0%.

As for `COc1ccc([C@@H](C)NC(=O)c2cc(N3CC4(CNC4)C3)ccc2C)cc1-c1cnn(C)c1` [Example 271, 5-(2,6-Diazaspiro[3.3]heptan-2-yl)-N-[(1R)-1-[4-methoxy-3-(1-methylpyrazol-4-yl)phenyl]ethyl]-2-methyl-benzamide], the IC50 on SARS-CoV-2 PLpro is < 5 µM. The “% Cell Viability” value in data set [1] worked out at 95.2%.

For the molecule `Cc1ccc(N2CCN(C)CC2)cc1C(=O)N[C@H](C)c1cccc(-c2csc(C(=O)N(C)C)c2)c1` [Example 101, N,N-Dimethyl-4-[3-[(1R)-1-[[2-methyl-5-(4-methylpiperazin-1-yl)benzoyl]amino]ethyl]phenyl]thiophene-2-carboxamide], on SARS-CoV-2 PLpro, the IC50 is < 2 µM. Moreover, the “% Cell Viability” value in data set [1] was 88.1%.

For `Cc1ccc(N2CCN(C)CC2)cc1C(=O)N[C@H](C)c1cccc(N2CCN(C)CC2)c1` [Example 104], the “% Cell Viability” value in data set [1] is listed as 82.7%.

For the molecule `Cc1ccc(N2CCN(C)CC2)cc1C(=O)N[C@H](C)c1cc(OC(F)F)cc(-c2cnn(C)c2)c1` [Example 283, N-[(1R)-1-[3-(Difluoromethoxy)-5-(1-methylpyrazol-4-yl)phenyl]ethyl]-2-methyl-5-(4-methylpiperazin-1-yl)benzamide], on SARS-CoV-2 PLpro, the IC50 was < 2 µM.

As for `C[C@@H](NC(=O)c1cccc(-c2ccnc(N3CCN(C)CC3)n2)c1)c1cccc2ccccc12` [Example 137, 3-[2-(4-Methylpiperazin-1-yl)pyrimidin-4-yl]-N-[(1R)-1-(1-naphthyl)ethyl]benzamide], the IC50 on SARS-CoV-2 PLpro is > 100 µM.

For the molecule `C[C@@H](NC(=O)c1ccnc(N2CC[C@H](N)C2)n1)c1cccc2ccccc12` [Example 318, 2-[(3S)-3-Aminopyrrolidin-1-yl]-N-[(1R)-1-(1-naphthyl)ethyl]pyrimidine-4-carboxamide], the IC50 on SARS-CoV-2 PLpro is < 100 µM.

Take `C[C@@H](NC(=O)c1cc(N2CCNC(C(F)(F)F)C2)ccc1Cl)c1cccc2ccccc12` (stereo partly drawn) [Example 132, 2-Chloro-N-[(1R)-1-(1-naphthyl)ethyl]-5-[3-(trifluoromethyl)piperazin-1-yl]benzamide]: the IC50 at SARS-CoV-2 PLpro is < 100 µM.

Regarding `Cc1cnc(N2CCN(C)CC2)nc1C(=O)N[C@H](C)c1cccc2ccccc12` [Example 8, 5-Methyl-2-(4-methylpiperazin-1-yl)-N-[(1R)-1-(naphthalen-1-yl)ethyl]pyrimidine-4-carboxamide Hydrochloride Salt], on SARS-CoV-2 PLpro, the IC50 is < 100 µM.

For `Cc1ccc(N2CC[C@H](O)C2)cc1C(=O)N[C@H](C)c1cccc2ccccc12` [Example 119, 5-[(3S)-3-Hydroxypyrrolidin-1-yl]-2-methyl-N-[(1R)-1-(1-naphthyl)ethyl]benzamide], on SARS-CoV-2 PLpro, the IC50 is < 100 µM.

For `C[C@@H](NC(=O)c1cccc(C2CCN(CCS(C)(=O)=O)CC2)c1)c1cccc2ccccc12` [Example 176, 3-[1-(2-Methylsulfonylethyl)-4-piperidyl]-N-[(1R)-1-(1-naphthyl)ethyl]benzamide], the IC50 on SARS-CoV-2 PLpro is < 100 µM.

Regarding `Cc1ccc(N2CCCN(CCS(C)(=O)=O)CC2)cc1C(=O)N[C@H](C)c1cccc2ccccc12` [Example 177, 2-Methyl-5-[4-(2-methylsulfonylethyl)-1,4-diazepan-1-yl]-N-[(1R)-1-(1-naphthyl)ethyl]benzamide], on SARS-CoV-2 PLpro, the IC50 was < 20 µM.

Consider `C[C@@H](NC(=O)c1cccc(C(=O)N2CCN(C)CC2)c1)c1cccc2ccccc12` [Example 173, 3-(4-Methylpiperazine-1-carbonyl)-N-[(1R)-1-(1-naphthyl)ethyl]benzamide], for which, at SARS-CoV-2 PLpro, the IC50 was > 100 µM.

As to `Cc1ccc(-c2cccc(CCN3CCOCC3)c2)cc1C(=O)N[C@H](C)c1cccc2ccccc12` [Example 141, 2-Methyl-5-[3-(2-morpholinoethyl)phenyl]-N-[(1R)-1-(1-naphthyl)ethyl]benzamide], the IC50 at SARS-CoV-2 PLpro is > 100 µM.

Consider `Cc1ccc(N2CCN(C)CC2)cc1C(=O)N[C@H](C)c1cccc(C(=O)N2CCN(C)CC2)c1` [Example 307, 2-Methyl-N-[(1R)-1-[3-(4-methylpiperazine-1-carbonyl)phenyl]ethyl]-5-(4-methylpiperazin-1-yl)benzamide], for which the IC50 at SARS-CoV-2 PLpro is < 2 µM.

Regarding `Cc1ccc(N2CCN(C)CC2)cc1C(=O)N[C@H](C)c1cccc(CCC(=O)O)c1` [Example 82, 3-[3-[(1R)-1-[[2-Methyl-5-(4-methylpiperazin-1-yl)benzoyl]amino]ethyl]phenyl] propanoic Acid], the IC50 on SARS-CoV-2 PLpro is < 100 µM.

As to `Cc1ccc(-c2ccccc2)cc1C(=O)N[C@H](C)c1cccc2ccccc12` [Example 5, 2-Methyl-N-[(1R)-1-(1-naphthyl)ethyl]-5-phenyl-benzamide], at SARS-CoV-2 PLpro, the IC50 is > 100 µM.

For `Cc1ccc(N2CCN(C)CC2)cc1C(=O)N[C@H](C)c1cccc(-c2ccncc2)c1` [Example 51, 2-Methyl-5-(4-methylpiperazin-1-yl)-N-[(1R)-1-[3-(4-pyridyl)phenyl]ethyl]benzamide], at SARS-CoV-2 PLpro, the IC50 was < 2 µM.

Take `C[C@@H](NC(=O)c1cccc(-c2ccnc(N3CCOCC3)n2)c1)c1cccc2ccccc12` [Example 138, 3-(2-Morpholinopyrimidin-4-yl)-N-[(1R)-1-(1-naphthyl)ethyl]benzamide]: on SARS-CoV-2 PLpro, the half-maximal inhibitory concentration (IC50) is > 100 µM.

Turning to `CCOc1cc(-c2cnn(C)c2)cc([C@@H](C)NC(=O)c2cc(N3CCN(C)CC3)ccc2C)c1` [Example 278, N-[(1R)-1-[3-Ethoxy-5-(1-methylpyrazol-4-yl)phenyl]ethyl]-2-methyl-5-(4-methylpiperazin-1-yl)benzamide], the IC50 at SARS-CoV-2 PLpro is < 2 µM.

For the molecule `Cc1ccc(-c2ccncc2)cc1C(=O)N[C@H](C)c1cccc2ccccc12` [Example 139, 2-Methyl-N-[(1R)-1-(1-naphthyl)ethyl]-5-(4-pyridyl)benzamide], on SARS-CoV-2 PLpro, the IC50 is < 20 µM.

Consider `C[C@@H](NC(=O)c1cc(-c2ccc(CN3CCN(C)CC3)cc2)ccc1Cl)c1cccc2ccccc12` [Example 145], for which, at SARS-CoV-2 PLpro, the IC50 is < 100 µM.

In the case of `Cc1ccc(N2CCN(C)CC2)cc1C(=O)N[C@H](C)c1cc(OCC2CC2)cc(-c2cnn(C)c2)c1` [Example 277, N-[(1R)-1-[3-(Cyclopropylmethoxy)-5-(1-methylpyrazol-4-yl)phenyl]ethyl]-2-methyl-5-(4-methylpiperazin-1-yl)benzamide], the IC50 on SARS-CoV-2 PLpro was < 2 µM.

For `COc1cc([C@@H](C)NC(=O)c2cc(N3CCN(C)CC3)ccc2C)ccc1O` [Example 305, N-[(1R)-1-(4-Hydroxy-3-methoxy-phenyl)ethyl]-2-methyl-5-(4-methylpiperazin-1-yl)benzamide], the concentration for half-maximal inhibition (IC50) on SARS-CoV-2 PLpro was < 5 µM.

Take `Cc1ccc(-c2cccc(CCO)c2)cc1C(=O)N[C@H](C)c1cccc2ccccc12` [Example 142, 5-[3-(2-Hydroxyethyl)phenyl]-2-methyl-N-[(1R)-1-(1-naphthyl)ethyl]benzamide]: the IC50 on SARS-CoV-2 PLpro is > 100 µM.

In the case of `Cc1ccc(N2CCN(C)CC2)cc1C(=O)N(C)[C@H](C)c1cccc2ccccc12` [Example 35, N,2-Dimethyl-5-(4-methylpiperazin-1-yl)-N-[(1R)-1-(1-naphthyl)ethyl]benzamide], on SARS-CoV-2 PLpro, the IC50 is < 100 µM.

On to `Cc1ccc(N2CCN(C)CC2)cc1C(=O)N[C@H](C)c1cncc(Br)c1` [Example 193, N-[(1R)-1-(5-Bromo-3-pyridyl)ethyl]-2-methyl-5-(4-methylpiperazin-1-yl)benzamide], for which the IC50 on SARS-CoV-2 PLpro was < 100 µM.

Take `Cc1ccc(-c2cccnc2)cc1C(=O)N[C@H](C)c1cccc2ccccc12` [Example 143, 2-Methyl-N-[(1R)-1-(1-naphthyl)ethyl]-5-(3-pyridyl)benzamide]: the IC50 on SARS-CoV-2 PLpro was < 20 µM.

For the molecule `C[C@@H](NC(=O)c1cc(-c2ccc(C3CCNCC3)cc2)cn1C)c1cccc2ccccc12` [Example 151, 1-Methyl-N-[(1R)-1-(1-naphthyl)ethyl]-4-[4-(4-piperidyl)phenyl]pyrrole-2-carboxamide], at SARS-CoV-2 PLpro, the IC50 is > 100 µM.

As a reminder, the IC50 is the concentration that gives 50% inhibition.
